Patent US20250353891A1 (MEDIMMUNE LIMITED, priority 2022, published 2025)
Starred links: 1 amine or outer side, 2 acyl side, 3 side chain; linkers in the order of their positions; H or OH if unused. Non-standard residues stand in square brackets, D forms with d. Residues, ends and D or L forms follow the SMILES beside them. Groups on a side chain read outwards from the residue. *: point of attachment. C20 diacid = O=C(O)CCCCCCCCCCCCCCCCCCC(=O)*; C18 diacid = O=C(O)CCCCCCCCCCCCCCCCC(=O)*; γGlu = O=C(O)[C@H](CCC(=O)[*:2])N[*:1]; αMeF = C[C@](N)(Cc1ccccc1)C(=O)O; PEG4 = NCCOCCOCCOCCOCCC(=O)O; AEEA = NCCOCCOCC(=O)O; Aib = CC(C)(N)C(=O)O

Key:
[1] = target: human glucagon receptor (hGCGR) (Homo sapiens, UniProt P47871); assay: cAMP production (HTRF) in CHO cells expressing hGCGR; type: cell-based; parameters: expressed in transfected cells; details: Table 7, peptides modified at position 20; cAMP in CHO hGCGR cells; geometric mean; read-out: hGluc-R EC50
human glucagon receptor (hGCGR), sequence (P47871 26-477): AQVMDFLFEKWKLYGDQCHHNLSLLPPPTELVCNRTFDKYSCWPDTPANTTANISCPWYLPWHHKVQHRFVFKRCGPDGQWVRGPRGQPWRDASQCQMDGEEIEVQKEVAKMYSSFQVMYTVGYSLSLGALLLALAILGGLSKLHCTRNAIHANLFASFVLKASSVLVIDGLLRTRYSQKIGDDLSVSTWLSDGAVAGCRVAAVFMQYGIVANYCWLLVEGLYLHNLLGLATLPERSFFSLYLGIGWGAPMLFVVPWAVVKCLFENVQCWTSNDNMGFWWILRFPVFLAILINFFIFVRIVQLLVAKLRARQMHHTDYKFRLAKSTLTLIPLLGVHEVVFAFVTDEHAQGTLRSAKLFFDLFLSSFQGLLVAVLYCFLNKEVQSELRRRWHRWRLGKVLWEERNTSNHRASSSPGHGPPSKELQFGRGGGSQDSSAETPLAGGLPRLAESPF
Method in brief: (§1)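 Cells were resuspended in assay buffer at batch-optimized density, typically 1×10^5 cells/mL for hGLP-1R and 2×10^5 cells/mL for hGCGR. After 30 min incubation at room temperature with compound, cAMP was measured by two-step HTRF. EC50 values came from 4-parameter logistic fits of % Delta F.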

[2] = target: human GLP-1 receptor (hGLP-1R) (Homo sapiens, UniProt P43220); assay: cAMP production (HTRF) in CHO cells expressing hGLP-1R; type: cell-based; parameters: expressed in transfected cells; details: for EC50: Table 7, peptides modified at position 20, cAMP in CHO hGLP-1R cells, geometric mean, read-out: hGLP-1R EC50; for % Relative Potency Ratio: Table 7, % GLP-1R activity relative to GLP-1 / % GlucR activity relative to glucagon
human GLP-1 receptor (hGLP-1R), sequence (P43220 24-463): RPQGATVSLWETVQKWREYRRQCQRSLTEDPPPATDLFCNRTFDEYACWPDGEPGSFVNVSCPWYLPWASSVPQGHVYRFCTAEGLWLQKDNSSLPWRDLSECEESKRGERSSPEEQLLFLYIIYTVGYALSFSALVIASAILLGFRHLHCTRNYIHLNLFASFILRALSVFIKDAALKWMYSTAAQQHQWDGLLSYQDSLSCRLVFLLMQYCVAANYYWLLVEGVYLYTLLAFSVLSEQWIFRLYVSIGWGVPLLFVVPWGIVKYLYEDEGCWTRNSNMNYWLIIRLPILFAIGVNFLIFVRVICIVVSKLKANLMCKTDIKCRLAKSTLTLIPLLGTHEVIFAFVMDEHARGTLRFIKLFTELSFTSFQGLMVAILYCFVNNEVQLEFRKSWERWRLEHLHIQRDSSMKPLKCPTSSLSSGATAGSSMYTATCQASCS
Method in brief: as §1

EC50 [1] | EC50 [2] | % Relative Potency Ratio [2] | SMILES
0.131 nM | 0.0712 nM | 3.6 | CC[C@H](C)[C@H](NC(=O)C(C)(C)NC(=O)[C@H](CCC(N)=O)NC(=O)[C@@H](NC(=O)[C@](C)(Cc1ccccc1)NC(=O)[C@H](CC(=O)O)NC(=O)[C@H](CCCCNC(=O)COCCOCCNC(=O)CC[C@H](NC(=O)COCCOCCNC(=O)CCCCCCCCCCCCCCCCCCC(=O)O)C(=O)O)NC(=O)[C@H](C)NC(=O)[C@H](C)NC(=O)[C@H](CCCNC(=N)N)NC(=O)[C@H](CO)NC(=O)[C@H](CC(=O)O)NC(=O)[C@H](CC(C)C)NC(=O)[C@](C)(Cc1ccccc1)NC(=O)[C@H](CCCCN)NC(=O)[C@H](CO)NC(=O)[C@@H](NC(=O)[C@H](CC(=O)O)NC(=O)[C@H](CO)NC(=O)[C@@H](NC(=O)[C@](C)(Cc1ccccc1)NC(=O)[C@H](CO)NC(=O)CNC(=O)[C@H](Cc1c[nH]cn1)NC(=O)C(C)(C)NC(=O)[C@@H](N)Cc1c[nH]cn1)[C@@H](C)O)C(C)C)C(C)C)C(=O)N[C@@H](C)C(=O)N[C@@H](CC(N)=O)C(=O)N[C@H](C(N)=O)[C@@H](C)O [Peptide 265] (H-H[Aib]HGS[αMeF]TSDVSK[αMeF]LDSRAAK([AEEA-γGlu-AEEA-C20 diacid])D[αMeF]VQ[Aib]IANT-NH2)
0.293 nM | 0.0665 nM | 8.7 | CC[C@H](C)[C@H](NC(=O)C(C)(C)NC(=O)[C@H](CCC(N)=O)NC(=O)[C@@H](NC(=O)[C@](C)(Cc1ccccc1)NC(=O)[C@H](CC(=O)O)NC(=O)[C@H](CCCCNC(=O)COCCOCCNC(=O)CC[C@H](NC(=O)COCCOCCNC(=O)CC[C@H](NC(=O)CCCCCCCCCCCCCCCCCCC(=O)O)C(=O)O)C(=O)O)NC(=O)[C@H](C)NC(=O)[C@H](C)NC(=O)[C@H](CCCNC(=N)N)NC(=O)[C@H](CO)NC(=O)[C@H](CC(=O)O)NC(=O)[C@H](CC(C)C)NC(=O)[C@](C)(Cc1ccccc1)NC(=O)[C@H](CCCCN)NC(=O)[C@H](CO)NC(=O)[C@@H](NC(=O)[C@H](CC(=O)O)NC(=O)[C@H](CO)NC(=O)[C@@H](NC(=O)[C@](C)(Cc1ccccc1)NC(=O)[C@H](CO)NC(=O)CNC(=O)[C@H](Cc1c[nH]cn1)NC(=O)C(C)(C)NC(=O)[C@@H](N)Cc1c[nH]cn1)[C@@H](C)O)C(C)C)C(C)C)C(=O)N[C@@H](C)C(=O)N[C@@H](CC(N)=O)C(=O)N[C@H](C(N)=O)[C@@H](C)O [Peptide 266] (H-H[Aib]HGS[αMeF]TSDVSK[αMeF]LDSRAAK([AEEA-γGlu-AEEA-γGlu-C20 diacid])D[αMeF]VQ[Aib]IANT-NH2)
0.128 nM | 0.0656 nM | 3.9 | CC[C@H](C)[C@H](NC(=O)C(C)(C)NC(=O)[C@H](CCC(N)=O)NC(=O)[C@@H](NC(=O)[C@](C)(Cc1ccccc1)NC(=O)[C@H](CC(=O)O)NC(=O)[C@H](CCCCNC(=O)CCOCCOCCOCCOCCNC(=O)CC[C@H](NC(=O)CCCCCCCCCCCCCCCCCCC(=O)O)C(=O)O)NC(=O)[C@H](C)NC(=O)[C@H](C)NC(=O)[C@H](CCCNC(=N)N)NC(=O)[C@H](CO)NC(=O)[C@H](CC(=O)O)NC(=O)[C@H](CC(C)C)NC(=O)[C@](C)(Cc1ccccc1)NC(=O)[C@H](CCCCN)NC(=O)[C@H](CO)NC(=O)[C@@H](NC(=O)[C@H](CC(=O)O)NC(=O)[C@H](CO)NC(=O)[C@@H](NC(=O)[C@](C)(Cc1ccccc1)NC(=O)[C@H](CO)NC(=O)CNC(=O)[C@H](Cc1c[nH]cn1)NC(=O)C(C)(C)NC(=O)[C@@H](N)Cc1c[nH]cn1)[C@@H](C)O)C(C)C)C(C)C)C(=O)N[C@@H](C)C(=O)N[C@@H](CC(N)=O)C(=O)N[C@H](C(N)=O)[C@@H](C)O [Peptide 267] (H-H[Aib]HGS[αMeF]TSDVSK[αMeF]LDSRAAK([PEG4-γGlu-C20 diacid])D[αMeF]VQ[Aib]IANT-NH2)

More lines, now with the values behind:

SMILES | EC50 [1] | EC50 [2] | % Relative Potency Ratio [2]
CC[C@H](C)[C@H](NC(=O)C(C)(C)NC(=O)[C@H](CCC(N)=O)NC(=O)[C@@H](NC(=O)[C@](C)(Cc1ccccc1)NC(=O)[C@H](CC(=O)O)NC(=O)[C@H](CCCCNC(=O)COCCOCCNC(=O)CC[C@H](NC(=O)CCCCCCCCCCCCCCCCCCC(=O)O)C(=O)O)NC(=O)[C@H](C)NC(=O)[C@H](C)NC(=O)[C@H](CCCNC(=N)N)NC(=O)[C@H](CO)NC(=O)[C@H](CC(=O)O)NC(=O)[C@H](CC(C)C)NC(=O)[C@](C)(Cc1ccccc1)NC(=O)[C@H](CCCCN)NC(=O)[C@H](CO)NC(=O)[C@@H](NC(=O)[C@H](CC(=O)O)NC(=O)[C@H](CO)NC(=O)[C@@H](NC(=O)[C@](C)(Cc1ccccc1)NC(=O)[C@H](CO)NC(=O)CNC(=O)[C@H](Cc1c[nH]cn1)NC(=O)C(C)(C)NC(=O)[C@@H](N)Cc1c[nH]cn1)[C@@H](C)O)C(C)C)C(C)C)C(=O)N[C@@H](C)C(=O)N[C@@H](CC(N)=O)C(=O)N[C@H](C(N)=O)[C@@H](C)O [Peptide 268] (H-H[Aib]HGS[αMeF]TSDVSK[αMeF]LDSRAAK([AEEA-γGlu-C20 diacid])D[αMeF]VQ[Aib]IANT-NH2; N-terminus assumed) | 0.0293 nM | 0.0395 nM | 1.5
CC[C@H](C)[C@H](NC(=O)C(C)(C)NC(=O)[C@H](CCC(N)=O)NC(=O)[C@@H](NC(=O)[C@](C)(Cc1ccccc1)NC(=O)[C@H](CC(=O)O)NC(=O)[C@H](CCCCNC(=O)CCOCCOCCOCCOCCNC(=O)CC[C@H](NC(=O)CC[C@H](NC(=O)CCCCCCCCCCCCCCCCCCC(=O)O)C(=O)O)C(=O)O)NC(=O)[C@H](C)NC(=O)[C@H](C)NC(=O)[C@H](CCCNC(=N)N)NC(=O)[C@H](CO)NC(=O)[C@H](CC(=O)O)NC(=O)[C@H](CC(C)C)NC(=O)[C@](C)(Cc1ccccc1)NC(=O)[C@H](CCCCN)NC(=O)[C@H](CO)NC(=O)[C@@H](NC(=O)[C@H](CC(=O)O)NC(=O)[C@H](CO)NC(=O)[C@@H](NC(=O)[C@](C)(Cc1ccccc1)NC(=O)[C@H](CO)NC(=O)CNC(=O)[C@H](Cc1c[nH]cn1)NC(=O)C(C)(C)NC(=O)[C@@H](N)Cc1c[nH]cn1)[C@@H](C)O)C(C)C)C(C)C)C(=O)N[C@@H](C)C(=O)N[C@@H](CC(N)=O)C(=O)N[C@H](C(N)=O)[C@@H](C)O [Peptide 269] (H-H[Aib]HGS[αMeF]TSDVSK[αMeF]LDSRAAK([PEG4-γGlu-γGlu-C20 diacid])D[αMeF]VQ[Aib]IANT-NH2; N-terminus assumed) | 0.271 nM | 0.052 nM | 10.3
CC[C@H](C)[C@H](NC(=O)C(C)(C)NC(=O)[C@H](CCC(N)=O)NC(=O)[C@@H](NC(=O)[C@](C)(Cc1ccccc1)NC(=O)[C@H](CC(=O)O)NC(=O)[C@H](CCCCNC(=O)CC[C@H](NC(=O)CC[C@H](NC(=O)CCCCCCCCCCCCCCCCC(=O)O)C(=O)O)C(=O)O)NC(=O)[C@H](C)NC(=O)[C@H](C)NC(=O)[C@H](CCCNC(=N)N)NC(=O)[C@H](CO)NC(=O)[C@H](CC(=O)O)NC(=O)[C@H](CC(C)C)NC(=O)[C@](C)(Cc1ccccc1)NC(=O)[C@H](CCCCN)NC(=O)[C@H](CO)NC(=O)[C@@H](NC(=O)[C@H](CC(=O)O)NC(=O)[C@H](CO)NC(=O)[C@@H](NC(=O)[C@](C)(Cc1ccccc1)NC(=O)[C@H](CO)NC(=O)CNC(=O)[C@H](Cc1c[nH]cn1)NC(=O)C(C)(C)NC(=O)[C@@H](N)Cc1c[nH]cn1)[C@@H](C)O)C(C)C)C(C)C)C(=O)N[C@@H](C)C(=O)N[C@@H](CC(N)=O)C(=O)N[C@H](C(N)=O)[C@@H](C)O [Peptide 270] (H-H[Aib]HGS[αMeF]TSDVSK[αMeF]LDSRAAK([γGlu-γGlu-C18 diacid])D[αMeF]VQ[Aib]IANT-NH2) | 0.0313 nM | 0.0244 nM | 2.5
CC[C@H](C)[C@H](NC(=O)C(C)(C)NC(=O)[C@H](CCC(N)=O)NC(=O)[C@@H](NC(=O)[C@](C)(Cc1ccccc1)NC(=O)[C@H](CC(=O)O)NC(=O)[C@H](CCCCNC(=O)CC[C@H](NC(=O)CCCCCCCCCCCCCCCCC(=O)O)C(=O)O)NC(=O)[C@H](C)NC(=O)[C@H](C)NC(=O)[C@H](CCCNC(=N)N)NC(=O)[C@H](CO)NC(=O)[C@H](CC(=O)O)NC(=O)[C@H](CC(C)C)NC(=O)[C@](C)(Cc1ccccc1)NC(=O)[C@H](CCCCN)NC(=O)[C@H](CO)NC(=O)[C@@H](NC(=O)[C@H](CC(=O)O)NC(=O)[C@H](CO)NC(=O)[C@@H](NC(=O)[C@](C)(Cc1ccccc1)NC(=O)[C@H](CO)NC(=O)CNC(=O)[C@H](Cc1c[nH]cn1)NC(=O)C(C)(C)NC(=O)[C@@H](N)Cc1c[nH]cn1)[C@@H](C)O)C(C)C)C(C)C)C(=O)N[C@@H](C)C(=O)N[C@@H](CC(N)=O)C(=O)N[C@H](C(N)=O)[C@@H](C)O [Peptide 271] (H-H[Aib]HGS[αMeF]TSDVSK[αMeF]LDSRAAK([γGlu-C18 diacid])D[αMeF]VQ[Aib]IANT-NH2; N-terminus assumed) | 0.028 nM | 0.0546 nM | 1.0
CC[C@H](C)[C@H](NC(=O)C(C)(C)NC(=O)[C@H](CCC(N)=O)NC(=O)[C@@H](NC(=O)[C@](C)(Cc1ccccc1)NC(=O)[C@H](CC(=O)O)NC(=O)[C@H](CCCCNC(=O)COCCOCCNC(=O)COCCOCCNC(=O)CCCCCCCCCCCCCCCCC(=O)O)NC(=O)[C@H](C)NC(=O)[C@H](C)NC(=O)[C@H](CCCNC(=N)N)NC(=O)[C@H](CO)NC(=O)[C@H](CC(=O)O)NC(=O)[C@H](CC(C)C)NC(=O)[C@](C)(Cc1ccccc1)NC(=O)[C@H](CCCCN)NC(=O)[C@H](CO)NC(=O)[C@@H](NC(=O)[C@H](CC(=O)O)NC(=O)[C@H](CO)NC(=O)[C@@H](NC(=O)[C@](C)(Cc1ccccc1)NC(=O)[C@H](CO)NC(=O)CNC(=O)[C@H](Cc1c[nH]cn1)NC(=O)C(C)(C)NC(=O)[C@@H](N)Cc1c[nH]cn1)[C@@H](C)O)C(C)C)C(C)C)C(=O)N[C@@H](C)C(=O)N[C@@H](CC(N)=O)C(=O)N[C@H](C(N)=O)[C@@H](C)O [Peptide 272] (H-H[Aib]HGS[αMeF]TSDVSK[αMeF]LDSRAAK([AEEA-AEEA-C18 diacid])D[αMeF]VQ[Aib]IANT-NH2) | 0.0143 nM | 0.0157 nM | 1.8
